Measured values as given in paper PMC11373213, “Anti-Toxoplasma gondii effects of XYP1-derived peptides and regulatory mechanisms of XYP1” (Parasites & Vectors, 2024).
Peptide text beside a SMILES is read from it.

Assays:
[1] = system: T. gondii RH strain tachyzoites; assay: Mouse survival assay after T. gondii RH infection; assay type: in vivo; conditions: mice i.p. 1000 RH strain tachyzoites; for effect on survival time of infected mice (in words): peptide after 4 h, 4 mg/kg, Fig. 3E; for survival of infected mice prolonged to: peptide injected after 4 h, 4 mg/kg (legend; method says 4 mg/mL), control group all died at 127.1 h
Protocol: The anti-T. gondii effect of peptides in vivo was investigated through a mouse survival experiment. The experiment was divided into a PBS control group and different polypeptide groups. Each group of mice was intraperitoneally injected with 1000 RH strain tachyzoites. After 4 h, the pre-prepared 4 mg/mL peptides were injected into the mice. The survival time of mice in each group was recorded and analyzed statistically.

T. gondii tachyzoites [2] = assay: Trypan blue staining (exclusion) assay, killing of tachyzoites; assay type: cell-based, Toxoplasma gondii; conditions: 10 μM peptide, 2 h incubation with T. gondii, optical microscope, Fig. 2A
Protocol: When T. gondii died, trypan blue was able to cross its cell membrane and enter the interior, making it blue. Trypan blue exclusion test was undertaken as mentioned before. Firstly, 10 μM different XYP1-derived peptides were prepared, incubated with T. gondii for 2 h, and then the trypan blue dye was added. After 3–5 min, the survival rate of T. gondii was observed by optical microscope and the mortality rate was calculated.

T. gondii tachyzoites [3] = assay: Transmission electron microscopy of tachyzoite internal structure; assay type: cell-based, Toxoplasma gondii; conditions: 10 μM peptide, 2 h; Fig. 5
Protocol: TEM steps mainly include fixing, rinsing, dehydration, infiltration, embedding, etc. After the T. gondii samples were fixed in 4% glutaraldehyde, they were washed with a cacodylate buffer, and 1% osmium tetroxide was used to fix the sample at 4 ℃ for 2 h. The fixed samples were then washed and subjected to a series of gradient dewatering treatments before being embedded in epoxy resin and polymerized at 60 ℃. After polymerization, the sample was sliced and double stained. Finally, the internal structure of T. gondii tachyzoites treated with different polypeptides was observed by TEM (Tecnai G2 Spirit TWIN, USA).

[4] = system: tachyzoites of RH-GFP-TgAtg8 T. gondii strain; assay: Fluorescence microscopy killing assay with RH-GFP-TgAtg8 tachyzoites; assay type: cell-based, Toxoplasma gondii; conditions: for fluorescence area and intensity of RH-GFP-TgAtg8 tachyzoites vs control: 10 μM peptide, 2 h incubation, fluorescence microscopy, Fig. 2C, D; for concentration dependence of killing effect (fluorescence area and intensity): 5 μM, 10 μM, 20 μM, room temperature, 2 h, Fig. 3A, B
Protocol: To explore the concentration dependence of the polypeptides against T. gondii, XYP1-derived peptide solutions with different concentration gradients (5 μM, 10 μM, 20 μM) were prepared and then mixed with T. gondii tachyzoites at room temperature. After incubation for 2 h, the anti-T. gondii effect was observed by fluorescence microscopy.

CCK-8 cytotoxicity assay = assay type: cell-based; conditions: human; CCK-8, HFFs, 24 h with peptide then 2 h with CCK-8, OD540; Fig. 3C
Protocol: […] After 24 h, 10 μL CCK-8 solution (APExBIO, USA) was added and incubated for another 2 h. The OD540 value was then measured and the cell mortality was calculated.

human red blood cells = assay: Hemolysis assay; assay type: cell-based; conditions: 1% human red blood cells in PBS, 37 ℃, 30 min, OD540
Protocol: The hemolytic activity of peptides was determined by the amount of hemoglobin released from lysed human red blood cells. Normal human blood was mixed 1:1 with Aldrin’s fluid, followed by centrifuging, and phosphate buffered saline (PBS) was added to make 1% red blood cell resuspension. The 50 μL resuspension was mixed with 50 μL PBS, 1% Triton X-100, 70% DMSO (Sigma, USA), and different concentrations of polypeptides, then incubated at 37 ℃ for 30 min. After centrifugation, the OD540 value of the supernatant was measured by Microplate reader (Agilent, USA) and the hemolysis rate was calculated.

IL-17 = assay: qRT-PCR of IL-17 transcription; assay type: cell-based, human; conditions: qPCR, XYP1 treatment group vs control; Fig. 7F
Protocol: (§1) The control group consisted of HFF cells infected with T. gondii without XYP1, and the experimental group was treated with XYP1 for 8 h. Total RNAs were extracted from the control and experimental groups and reverse to cDNA, with three replicates per group. After the steps of end repair, A-tailing, and adapter ligation, the samples were proceeded with polymerase chain reaction (PCR) amplification and Illumina transcriptome sequencing in the OE biotech Co., Ltd. (Shanghai, China). Trimmomatic software was used to filter the raw data to obtain high-quality data information. Subsequently, the filtered data was aligned and assembled using HISAT2 [30] and StringTie tool. The number of reads mapped to each gene in each sample was calculated.
(§2) The total RNAs from different samples were extracted using the classical Trizol method. The PerfectStart Uni RT&qPCR Kit (TransGen Biotech, China) was used to efficiently reverse transcribe RNA into cDNA and synthesize the first strand. The qRT-PCR reaction system contains cDNA temple, forward and reverse primers, double stranded DNA fluorescent dye (SYBR Green I), DNA polymerase, dNTP and buffer. The PCR reaction was performed using a two-step amplification procedure: 94 ℃ for 30 s (pre-denaturation) followed by 40 cycles of 94 ℃ for 5 s and 60 ℃ for 30 s. Finally, the relative expression of each gene was calculated by 2^−∆∆Cq method.

TP53 = assay: qRT-PCR of TP53 transcription; assay type: cell-based, human; conditions: qPCR, XYP1 treatment group vs control; Fig. 7G
Protocol: as §1, §2

NF-kB = assay: qRT-PCR of NF-kB transcription; assay type: cell-based, human; conditions: qPCR, XYP1 treatment group vs control; Fig. 7H
Protocol: as §1, §2

T. gondii tachyzoites [5] = conditions: 10 μM XYP1; previous study; cited from earlier work
Protocol: Therefore, trypan blue staining assay was used to compare the killing activity in vitro of 10 μM different derived peptides and XYP1.

SMILES	effect on survival time of infected mice (in words) [1]	survival of infected mice prolonged to [1] [h]	anti-T. gondii killing activity (toxoplasma mortality, trypan blue) (T. gondii tachyzoites [2])	damage of internal structure of tachyzoites (TEM) (T. gondii tachyzoites [3])	fluorescence area and intensity of RH-GFP-TgAtg8 tachyzoites vs control [4]	IC50 at 24 h (CCK-8 cytotoxicity assay) [µM]	hemolysis at 1.25 μM to 80 μM (human red blood cells; 1.25 μM to 80 μM)	hemolysis at the highest concentration (160 μM) (human red blood cells; 160 μM)	concentration dependence of killing effect (fluorescence area and intensity) [4]	transcription level of IL-17 (IL-17)	transcription level of TP53 (TP53)	transcription level of NF-kB (NF-kB)	hemolysis at 1.25 μM to 10 μM (human red blood cells; 1.25 μM to 10 μM)	killing of T. gondii tachyzoites (T. gondii tachyzoites [5])
CC[C@H](C)[C@H](NC(=O)[C@H](CCCCN)NC(=O)[C@H](CCCCN)NC(=O)[C@H](C)NC(=O)[C@@H](NC(=O)[C@H](CCCCN)NC(=O)[C@H](CCCCN)NC(=O)[C@H](CCSC)NC(=O)[C@H](CCCCN)NC(=O)[C@H](CCCCN)NC(=O)[C@H](Cc1ccccc1)NC(=O)[C@H](Cc1c[nH]c2ccccc12)NC(=O)[C@H](CCCCN)NC(=O)[C@H](CCCCN)NC(=O)[C@@H](N)CC(C)C)[C@@H](C)CC)C(=O)N[C@@H](C)C(=O)N[C@@H](CCCCN)C(=O)N[C@@H](CC(C)C)C(=O)O [XYP1-18-1] (H-LKKWFKKMKKIAKKIAKL-OH; N-terminus and C-terminus assumed)	poor effect on prolonging the survival time of mice	145	good anti-T. gondii activity	shrinkage and vacuolization, but also complete dissolution of the tachyzoites observed	significantly reduced compared with the control group	45.6								
CC[C@H](C)[C@H](NC(=O)[C@H](Cc1ccccc1)NC(=O)[C@H](CCCCN)NC(=O)[C@H](C)NC(=O)[C@@H](NC(=O)[C@H](CO)NC(=O)[C@H](CCCCN)NC(=O)[C@H](CCSC)NC(=O)[C@H](C)NC(=O)[C@H](CCCCN)NC(=O)[C@H](Cc1ccccc1)NC(=O)[C@H](Cc1c[nH]c2ccccc12)NC(=O)[C@H](CCCCN)NC(=O)[C@@H](NC(=O)[C@@H](N)CCCCN)[C@@H](C)CC)[C@@H](C)CC)C(=O)N[C@@H](C)C(=O)N[C@@H](CCCCN)C(=O)N[C@@H](CC(=O)O)C(=O)O [XYP1-18] (H-KIKWFKAMKSIAKFIAKD-OH; N-terminus and C-terminus assumed)	no significant difference between XYP1-18 and XYP1	191	comparable to XYP1	severe deformation and rupture of the surface membrane, but also serious shrinkage and vacuolization internally	significantly reduced compared with the control group	80.6	almost no hemolysis	only minor hemolysis	statistically different					
CC[C@H](C)[C@H](NC(=O)[C@H](Cc1ccccc1)NC(=O)[C@H](CCCCN)NC(=O)[C@H](C)NC(=O)[C@@H](NC(=O)[C@H](CO)NC(=O)[C@H](CCCCN)NC(=O)[C@H](CCSC)NC(=O)[C@H](C)NC(=O)[C@H](CCCCN)NC(=O)[C@H](Cc1ccccc1)NC(=O)[C@H](Cc1c[nH]c2ccccc12)NC(=O)[C@H](CCCCN)NC(=O)[C@@H](NC(=O)[C@@H](N)CCCCN)[C@@H](C)CC)[C@@H](C)CC)C(=O)N[C@@H](C)C(=O)N[C@@H](CCCCN)C(=O)N[C@@H](CC(=O)O)C(=O)N[C@@H](CCC(N)=O)C(=O)N[C@@H](CC(C)C)C(=O)N[C@@H](CCCCN)C(=O)N[C@@H](CCCCN)C(=O)N[C@@H](Cc1c[nH]cn1)C(=O)N[C@@H](CC(C)C)C(=O)O [XYP1] (H-KIKWFKAMKSIAKFIAKDQLKKHL-OH; N-terminus and C-terminus assumed)		208.5	consistent with the previous findings	ruptures in the surface membrane, but also different degrees of vacuolization internally		33.6			statistically different	down-regulated	down-regulated	up-regulated	almost no hemolysis reaction was observed	can kill T. gondii tachyzoites
